# Laboratory results: patent US20180371384A1, “METHOD FOR PRODUCING ROOTING-SUPPRESSED MALT” (SUNTORY HOLDINGS LIMITED, priority 2015, published 2018)
# Key:
# barley (Sukai Golden) = test: Amount of rooting, yield and length of acrospires (Test Example 3); assay type: in vivo; conditions: for Amount of Rooting Based on 100 g of Barley: germination 5 days at 20° C.
# Text: Here, the rooting amount used herein means total weight of a root thrusting out of the surface of each grain in malts which are malted from 100 g of raw material barley.
# Crops of Sukai Golden harvested in the year 2013 (99% of germination ratio) were used as domestic (Japan) two-row malting barley cultivar. and steeping conditions were the same as those in Test Example 1. A standard in which steeping of barley was earned out in pure water (pH 7.0) was defined as “normal steeping bailey (Comparative Example 2),” and a standard in which steeping of barley was earned out in an aqueous solution having a pH listed in Table 3 with phosphoric acid was defined as “acidic steeping barley (Example 2),” and three batches of malts each of which was obtained by going through the steps of steeping, germination and kilning were prepared. For each of batches of the normal malts and the acidic steeping barley obtained, the weight of rooting was obtained, and an average length of acrospires and an yield were obtained in the same manner as Test Example 1 to calculate an average thereof. In addition, each of the contents of an acrid component and β-glucan was measured as follows, and the contents of enzymes were measured in the same manner as Test Example 2. […] In addition, the germination was carried out for 5 days while keeping a temperature at 20° C. In addition, an yield was calculated as X/100 (%) from X g of a weight of roots-removed malts obtained from 100 g of barley.
# [1] = system: acrid component (hordatine glycoside); test: Measurement of acrid components in malts (LCMS); design: species or system barley
# Text: In addition, the content of the acrid component in the acidic steeping malts obtained is, for example, lowered in a case of a pH of from 1.8 to 2.0 of the acidic steeping water, and the content is preferably 90% by weight or less, more preferably 80% by weight or less, even more preferably 75% by weight or less, even more preferably 70% by weight or less, even more preferably 60% by weight or less, and even more preferably 55% by weight or less, when defining the content of the acrid component in normal malts as 100% by weight. Here, the acrid component as used herein refers to a hordatine glycoside, and the content can be measured in accordance with a method set forth in the following Examples.
# The amount 5.0 g of malts which are previously cryo-milled with ShakeMaster manufactured by Medical Bio Science are suspended in 40 mL of hot water at 65° C., and extraction is carried out at 65° C. for 1 hour. Thereafter, the extracts are subjected to centrifugation at 5,000 rpm for 20 minutes, and 10 mL of the supernatant is applied to PLS-2 solid phase column of GL Science (activated with methanol or the like), the column is washed with water, and thereafter fractions eluted with 20% ethanol are collected. The eluents are concentrated with SpeedVac, a concentrate is then freeze-dried, the freeze-dried product is dissolved in water, and the solution is subjected to LCMS under the following conditions, to obtain area of peak thereof.
# Apparatus; LCMS-2020 manufactured by Shimadzu Corporation
# Column: Polar column (Develosil-C30-UG-5. φ2×150 mm)
# Mobile phase: Gradient of water containing 0.1% formic acid/acetocetonitrile[sic] • 0 to 62.5 minutes (2→10% acetonitrile) • 62.5 to 72.5 minutes (10% acetonitrile)
# Column temperature: 40° C.
# α-amylase = test: Measurement of α-amylase level in malts; design: species or system barley
# Experimental: (§1) One gram of malts which are previously cryo-milled with ShakeMaster manufactured by Medical Bio Science is suspended in 2 mL of a buffer suitable for the measurement of activities of various enzymes, extraction is carried out for 60 minutes in iced water, and the extracts are then subjected to ultracentrifugation treatment (1,000 g×20 minutes), to provide the supernatant as an enzyme solution.
# A crop a amylase kit from BIOCON is used. A blocked p-nitrophenyl maltoheptaoside (BPNPG7) is used as a substrate, enzyme extracts from malts are added thereto, and the mixture is reacted at 40° C. for 20 minutes. The reaction is stopped with Trizma base, and p-nitrophenyl maltosaccharide produced is degraded with glucoamylase, α-glucosidase. P-nitrophenol produced is subjected to phenolate color development, and the absorbance is measured at 410 nm (n=5).
# β-amylase = test: Measurement of β-amylase level in malts; design: species or system barley
# Experimental: as §1, with “malts which are” left out, “solution. Enzyme extracts from […] to Betamyl (p-nitrophenyl maltotriose; […]” for “solution.”
# endoprotease = test: Measurement of endoprotease level in malts; design: species or system barley
# Experimental: One gram of […] previously cryo-milled with ShakeMaster manufactured by Medical Bio Science is suspended in 2 mL of a buffer suitable for the measurement of activities of various enzymes, extraction is carried out for 60 minutes in iced water, and the extracts are then subjected to ultracentrifugation treatment (1,000 g×20 minutes), to provide the supernatant as an enzyme solution. Azo-stained casein is used as a substrate, enzyme extracts from […] thereto, and the mixture is reacted at 40° C. for 30 minutes. The reaction is stopped with a TCA solution, the solution is allowed to stand for 5 minutes, the mixture is then subjected to centrifugation to precipitate an undegraded substrate, and the supernatant is subjected to colorimetry at 366 mn (n=5). Here, an enzyme activity is defined such that an enzyme concentration of an enzyme liquid which is added to an enzyme reaction liquid to increase the absorbance by 1.0 is 1 U/mL. […] A pH of the solution is then adjusted to 8.5 with a diluted sulfuric acid, and a volume is tilled up to 100 mL.
structure (smiles),measurement,setting,value
"O=P(O)(O)O [Phosphoric Acid, phosphoric acid]",Length of Acrospires,"barley (Sukai Golden); Initial pH 1.5, 223 mM",0.38
same,Amount of Rooting Based on 100 g of Barley,"barley (Sukai Golden); Initial pH 1.5, 223 mM",0.03 g
same,Length of Acrospires,"barley (Sukai Golden); Initial pH 1.6, 176 mM",0.38
same,Amount of Rooting Based on 100 g of Barley,"barley (Sukai Golden); Initial pH 1.6, 176 mM",0.03 g
same,Length of Acrospires,"barley (Sukai Golden); Initial pH 1.8, 82 mM",0.38
same,Amount of Rooting Based on 100 g of Barley,"barley (Sukai Golden); Initial pH 1.8, 82 mM",0.05 g
same,Length of Acrospires,"barley (Sukai Golden); Initial pH 2.0, 29 mM",0.62
same,Amount of Rooting Based on 100 g of Barley,"barley (Sukai Golden); Initial pH 2.0, 29 mM",0.30 g
same,Length of Acrospires,"barley (Sukai Golden); Initial pH 2.2, 18 mM",0.63
same,Amount of Rooting Based on 100 g of Barley,"barley (Sukai Golden); Initial pH 2.2, 18 mM",1.51 g
same,Length of Acrospires,"barley (Sukai Golden); Initial pH 2.4, 7 mM",0.63
same,Amount of Rooting Based on 100 g of Barley,"barley (Sukai Golden); Initial pH 2.4, 7 mM",2.90 g
same,"Acrid Component (Based on Normal Steeping Barley, % by weight)","[1]; Initial pH 1.5, 223 mM",259 % by weight
same,"Acrid Component (Based on Normal Steeping Barley, % by weight)","[1]; Initial pH 1.6, 176 mM",104 % by weight
same,"Acrid Component (Based on Normal Steeping Barley, % by weight)","[1]; Initial pH 1.8, 82 mM",53 % by weight
same,"Acrid Component (Based on Normal Steeping Barley, % by weight)","[1]; Initial pH 2.0, 29 mM",80 % by weight
same,"Acrid Component (Based on Normal Steeping Barley, % by weight)","[1]; Initial pH 2.2, 18 mM",116 % by weight
same,"Acrid Component (Based on Normal Steeping Barley, % by weight)","[1]; Initial pH 2.4, 7 mM",120 % by weight
same,"α-Amylase (Based on Normal Steeping Barley, %)","α-amylase; Initial pH 1.5, 223 mM",21%
same,"α-Amylase (Based on Normal Steeping Barley, %)","α-amylase; Initial pH 1.6, 176 mM",25%
same,"α-Amylase (Based on Normal Steeping Barley, %)","α-amylase; Initial pH 1.8, 82 mM",39%
same,"α-Amylase (Based on Normal Steeping Barley, %)","α-amylase; Initial pH 2.0, 29 mM",90%
same,"α-Amylase (Based on Normal Steeping Barley, %)","α-amylase; Initial pH 2.2, 18 mM",90%
same,"α-Amylase (Based on Normal Steeping Barley, %)","α-amylase; Initial pH 2.4, 7 mM",91%
same,"β-Amylase (Based on Normal Steeping Barley, %)","β-amylase; Initial pH 1.5, 223 mM",187%
same,"β-Amylase (Based on Normal Steeping Barley, %)","β-amylase; Initial pH 1.6, 176 mM",128%
same,"β-Amylase (Based on Normal Steeping Barley, %)","β-amylase; Initial pH 1.8, 82 mM",557%
same,"β-Amylase (Based on Normal Steeping Barley, %)","β-amylase; Initial pH 2.0, 29 mM",400%
same,"β-Amylase (Based on Normal Steeping Barley, %)","β-amylase; Initial pH 2.2, 18 mM",370%
same,"β-Amylase (Based on Normal Steeping Barley, %)","β-amylase; Initial pH 2.4, 7 mM",221%
same,"Endoprotease (Based on Normal Steeping Barley, %)","endoprotease; Initial pH 1.5, 223 mM",16%
same,"Endoprotease (Based on Normal Steeping Barley, %)","endoprotease; Initial pH 1.6, 176 mM",20%
same,"Endoprotease (Based on Normal Steeping Barley, %)","endoprotease; Initial pH 1.8, 82 mM",45%
same,"Endoprotease (Based on Normal Steeping Barley, %)","endoprotease; Initial pH 2.0, 29 mM",65%
same,"Endoprotease (Based on Normal Steeping Barley, %)","endoprotease; Initial pH 2.2, 18 mM",68%
same,"Endoprotease (Based on Normal Steeping Barley, %)","endoprotease; Initial pH 2.4, 7 mM",35%
